The values below come from US20250163066A1, “PROTACs of MALT1” (TEGID THERAPEUTICS, INC., priority 2022, published 2025).

The structures appear in SMILES notation.

The test system of assay [1] is IL-2 MALT1-dependent release in Jurkat cells. Put plainly: cells. The assay is classed as cell-based. Conditions: Homo sapiens; Jurkat cells stimulated with antiCD3/antiCD28 for 24 h; IL-2 ELISA; read-out: EC50, IL-2 MALT1-dependent release inhibition. As for the experimental part:
Jurkat cells (ATCC, USA) (100,000 cells/well in a 96 well flat-bottom plate (Greiner, #655061) were cultured in RPMI 1640 supplemented with 10% FBS at 37° C., 5% CO2 in a humidified cell culture incubator for 0.5-1 h. Then 10 μl/well 15× compound (or DMSO) was added in duplicates. Cells were incubated with compound in a humidified cell culture incubator for 0.5-1 h. After the incubation, 10 μl/well of 15× human antiCD3 HIT3a antibody (BioLegend) together with 10 μl/well of 15× human antiCD28 antibody (Invitrogen) were added to stimulate Jurkat cells for 24 h. After 24 h of stimulation, supernatants were collected and IL-2 levels in supernatants were assessed using IL-2 ELISA kit (Vector-Best, Russia).
A general note: ELISA stands for enzyme-linked immunosorbent assay.

In the next assay the target is MALT1 (Homo sapiens (Human), UniProt Q9UDY8). As to the kind of experiment: MALT1 enzymatic activity inhibition (fluorescence, Ac-LRSR-AMC substrate). It counts as biochemical. Conditions: recombinant MALT1 1.5 ng/μl, Ac-LRSR-AMC 1 μM. The procedure, abridged: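 Recombinant human MALT1 (1.5 ng/μl final) preincubated 10 min at rt with compounds in 50 mM HEPES pH 7.2-7.4, 100 mM NaCl, 900 mM sodium citrate, 10 mM DTT; 1 μM Ac-LRSR-AMC then added. AMC fluorescence read at start and after 30 min 37 °C plus 30 min rt; difference gives signal, % inhibition fitted to IC50.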
Chain of MALT1 (Q9UDY8 whole entry): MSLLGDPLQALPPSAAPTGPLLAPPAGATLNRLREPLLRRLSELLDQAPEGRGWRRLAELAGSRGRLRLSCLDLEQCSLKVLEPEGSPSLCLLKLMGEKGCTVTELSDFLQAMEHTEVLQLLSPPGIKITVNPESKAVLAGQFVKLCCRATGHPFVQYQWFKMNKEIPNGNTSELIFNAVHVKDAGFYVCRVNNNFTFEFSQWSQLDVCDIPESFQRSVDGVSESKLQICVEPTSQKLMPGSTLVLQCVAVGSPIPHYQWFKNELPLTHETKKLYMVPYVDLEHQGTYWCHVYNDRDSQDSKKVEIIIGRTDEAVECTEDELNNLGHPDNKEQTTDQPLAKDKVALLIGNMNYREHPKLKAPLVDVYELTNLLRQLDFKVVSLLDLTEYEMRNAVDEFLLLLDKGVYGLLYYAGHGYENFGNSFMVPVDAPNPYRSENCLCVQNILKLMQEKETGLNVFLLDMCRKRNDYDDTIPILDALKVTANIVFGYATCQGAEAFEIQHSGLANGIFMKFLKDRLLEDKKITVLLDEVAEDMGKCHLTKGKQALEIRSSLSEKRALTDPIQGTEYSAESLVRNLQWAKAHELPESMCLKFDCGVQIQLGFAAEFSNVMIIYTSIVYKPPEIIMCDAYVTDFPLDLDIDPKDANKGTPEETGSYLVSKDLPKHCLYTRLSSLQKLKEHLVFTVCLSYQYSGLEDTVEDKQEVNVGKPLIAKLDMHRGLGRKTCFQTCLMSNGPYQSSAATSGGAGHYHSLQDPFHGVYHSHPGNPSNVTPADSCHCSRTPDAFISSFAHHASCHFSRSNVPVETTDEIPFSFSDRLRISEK

On to `O=C1CCC(N2Cc3cc(N4CCN(C(=O)CCCCCc5nc(-c6ncc(NC(=O)Nc7cnc8ccnn8c7C7CCCC7)cc6Cl)no5)CC4)ccc3C2=O)C(=O)N1` (centres unmarked) [Compound 3, 1-[5-chloro-6-[5-[6-[4-[2-(2,6-dioxo-3-piperidyl)-1-oxo-isoindolin-5-yl]piperazin-1-yl]-6-oxo-hexyl]-1,2,4-oxadiazol-3-yl]-3-pyridyl]-3-(7-cyclopentylpyrazolo[1,5-a]pyrimidin-6-yl)urea], for which the EC50 in assay [1] is < 500 nM; on MALT1, ≤ 0.2 µM.

In the case of `Cc1cc(NC(=O)Nc2cnc3ccnn3c2C2CCCC2)cnc1-c1noc(CC(C)(C)CC(=O)N2CCN(c3ccc4c(c3)CN(C3CCC(=O)NC3=O)C4=O)CC2)n1` (centres unmarked) [Compound 10, 1-(7-cyclopentylpyrazolo[1,5-a]pyrimidin-6-yl)-3-[6-[5-[4-[4-[2-(2,6-dioxo-3-piperidyl)-1-oxo-isoindolin-5-yl]piperazin-1-yl]-2,2-dimethyl-4-oxo-butyl]-1,2,4-oxadiazol-3-yl]-5-methyl-3-pyridyl]urea], the figures for the EC50 (in assay [1]; on MALT1) were 500 to 1000 nM and 0.2 to 0.5 µM, respectively.

For `Cc1cc(NC(=O)Nc2cnc3ccnn3c2C2CCCC2)cnc1-c1noc(CCCC(=O)N2CCN(c3ccc4c(c3)CN(C3CCC(=O)NC3=O)C4=O)CC2)n1` (centres unmarked) [Compound 12, 1-(7-cyclopentylpyrazolo[1,5-a]pyrimidin-6-yl)-3-[6-[5-[4-[4-[2-(2,6-dioxo-3-piperidyl)-1-oxo-isoindolin-5-yl]piperazin-1-yl]-4-oxo-butyl]-1,2,4-oxadiazol-3-yl]-5-methyl-3-pyridyl]urea], the EC50 in assay [1] was 1000 to 5000 nM; on MALT1 it was ≤ 0.2 µM.

For `Cc1cc(NC(=O)Nc2cnc3ccnn3c2C2CCCC2)cnc1-c1noc(CCC(=O)N2CCN(c3ccc4c(c3)CN(C3CCC(=O)NC3=O)C4=O)CC2)n1` (centres unmarked) [Compound 13, 1-(7-cyclopentylpyrazolo[1,5-a]pyrimidin-6-yl)-3-[6-[5-[3-[4-[2-(2,6-dioxo-3-piperidyl)-1-oxo-isoindolin-5-yl]piperazin-1-yl]-3-oxo-propyl]-1,2,4-oxadiazol-3-yl]-5-methyl-3-pyridyl]urea], the values for the EC50 (in assay [1]; at MALT1) were > 5000 nM and ≤ 0.2 µM, respectively.

Take `Cc1cc(NC(=O)Nc2cnc3ccnn3c2C2CCCC2)cnc1-c1noc(CCCCC(=O)N2CCN(c3ccc4c(c3)CN(C3CCC(=O)NC3=O)C4=O)CC2)n1` (centres unmarked) [Compound 14, 1-(7-cyclopentylpyrazolo[1,5-a]pyrimidin-6-yl)-3-[6-[5-[5-[4-[2-(2,6-dioxo-3-piperidyl)-1-oxo-isoindolin-5-yl]piperazin-1-yl]-5-oxo-pentyl]-1,2,4-oxadiazol-3-yl]-5-methyl-3-pyridyl]urea]: the EC50 in assay [1] was 1000 to 5000 nM; on MALT1 it was ≤ 0.2 µM.

As for `Cc1cc(NC(=O)Nc2cnc3ccnn3c2C2CCCC2)cnc1-c1noc(CCOCCN2CCN(c3ccc4c(c3)CN(C3CCC(=O)NC3=O)C4=O)CC2)n1` (centres unmarked) [Compound 16, 1-(7-cyclopentylpyrazolo[1,5-a]pyrimidin-6-yl)-3-[6-[5-[2-[2-[4-[2-(2,6-dioxo-3-piperidyl)-1-oxo-isoindolin-5-yl]piperazin-1-yl]ethoxy]ethyl]-1,2,4-oxadiazol-3-yl]-5-methyl-3-pyridyl]urea], the values for the EC50 (in assay [1]; on MALT1) were 1000 to 5000 nM and 0.2 to 0.5 µM, respectively.

Take `Cc1cc(NC(=O)Nc2cnc3ccnn3c2C2CCCC2)cnc1-c1noc(CCCCCN2CCN(c3ccc4c(c3)CN(C3CCC(=O)NC3=O)C4=O)CC2)n1` (centres unmarked) [Compound 17, 1-(7-cyclopentylpyrazolo[1,5-a]pyrimidin-6-yl)-3-[6-[5-[5-[4-[2-(2,6-dioxo-3-piperidyl)-1-oxo-isoindolin-5-yl]piperazin-1-yl]pentyl]-1,2,4-oxadiazol-3-yl]-5-methyl-3-pyridyl]urea]: the results for the EC50 (in assay [1]; at MALT1) were < 500 nM and ≤ 0.2 µM, respectively.

On to `Cc1cc(NC(=O)Nc2cnc3ccnn3c2C2CCCC2)cnc1-c1noc(CCCN2CCN(c3ccc4c(c3)CN(C3CCC(=O)NC3=O)C4=O)CC2)n1` (centres unmarked) [Compound 18, 1-(7-cyclopentylpyrazolo[1,5-a]pyrimidin-6-yl)-3-[6-[5-[3-[4-[2-(2,6-dioxo-3-piperidyl)-1-oxo-isoindolin-5-yl]piperazin-1-yl]propyl]-1,2,4-oxadiazol-3-yl]-5-methyl-3-pyridyl]urea], for which the values for the EC50 (in assay [1]; on MALT1) were < 500 nM and ≤ 0.2 µM, respectively.

As to `CC(C)c1c(NC(=O)Nc2cn(CCCCC(=O)N3CCN(c4ccc5c(c4)CN(C4CCC(=O)NC4=O)C5=O)CC3)nc2C(F)(F)F)cnc2ccnn12` (centres unmarked) [Compound 157, 1-[1-[5-[4-[2-(2,6-dioxo-3-piperidyl)-1-oxo-isoindolin-5-yl]piperazin-1-yl]-5-oxo-pentyl]-3-(trifluoromethyl)pyrazol-4-yl]-3-(7-isopropylpyrazolo[1,5-a]pyrimidin-6-yl)urea], at MALT1, the half-maximal effective concentration (EC50) was > 5 µM.

In the case of `O=C1CCC(N2Cc3cc(N4CCN(C(=O)CCCCCc5nc(-c6ncc(NC(=O)Nc7cnc8ccnn8c7C7CC7)cc6Cl)no5)CC4)ccc3C2=O)C(=O)N1` (centres unmarked) [Compound 158, 1-[5-chloro-6-[5-[6-[4-[2-(2,6-dioxo-3-piperidyl)-1-oxo-isoindolin-5-yl]piperazin-1-yl]-6-oxo-hexyl]-1,2,4-oxadiazol-3-yl]-3-pyridyl]-3-(7-cyclopropylpyrazolo[1,5-a]pyrimidin-6-yl)urea], at MALT1, the EC50 was ≤ 0.2 µM.

Turning to `O=C1CCC(N2Cc3cc(N4CCN(CCCCCCc5nc(-c6ncc(NC(=O)Nc7cnc8ccnn8c7C7CC7)cc6Cl)no5)CC4)ccc3C2=O)C(=O)N1` (centres unmarked) [Compound 159, 1-[5-chloro-6-[5-[6-[4-[2-(2,6-dioxo-3-piperidyl)-1-oxo-isoindolin-5-yl]piperazin-1-yl]hexyl]-1,2,4-oxadiazol-3-yl]-3-pyridyl]-3-(7-cyclopropylpyrazolo[1,5-a]pyrimidin-6-yl)urea], the half-maximal effective concentration (EC50) at MALT1 is ≤ 0.2 µM.

Turning to `O=C1CCC(N2Cc3cc(N4CCN(C(=O)CCCCc5nc(-c6ncc(NC(=O)Nc7cnc8ccnn8c7C7CC7)cc6Cl)no5)CC4)ccc3C2=O)C(=O)N1` (centres unmarked) [Compound 160, 1-[5-chloro-6-[5-[5-[4-[2-(2,6-dioxo-3-piperidyl)-1-oxo-isoindolin-5-yl]piperazin-1-yl]-5-oxo-pentyl]-1,2,4-oxadiazol-3-yl]-3-pyridyl]-3-(7-cyclopropylpyrazolo[1,5-a]pyrimidin-6-yl)urea], on MALT1, the EC50 was ≤ 0.2 µM.

As to `O=C1CCC(N2Cc3cc(N4CCN(CCCCCc5nc(-c6ncc(NC(=O)Nc7cnc8ccnn8c7C7CC7)cc6Cl)no5)CC4)ccc3C2=O)C(=O)N1` (centres unmarked) [Compound 161, 1-[5-chloro-6-[5-[5-[4-[2-(2,6-dioxo-3-piperidyl)-1-oxo-isoindolin-5-yl]piperazin-1-yl]pentyl]-1,2,4-oxadiazol-3-yl]-3-pyridyl]-3-(7-cyclopropylpyrazolo[1,5-a]pyrimidin-6-yl)urea], the EC50 at MALT1 was ≤ 0.2 µM.

Consider `CC(C)c1c(NC(=O)Nc2cnc(-c3noc(CCCCCC(=O)N4CCN(c5ccc6c(c5)CN(C5CCC(=O)NC5=O)C6=O)CC4)n3)c(C(F)(F)F)c2)cnc2ccnn12` (centres unmarked) [Compound 162, 1-[6-[5-[6-[4-[2-(2,6-dioxo-3-piperidyl)-1-oxo-isoindolin-5-yl]piperazin-1-yl]-6-oxo-hexyl]-1,2,4-oxadiazol-3-yl]-5-(trifluoromethyl)-3-pyridyl]-3-(7-isopropylpyrazolo[1,5-a]pyrimidin-6-yl)urea], for which the EC50 on MALT1 was ≤ 0.2 µM.

As for `Cc1nn(CCCCC(=O)N2CCN(c3ccc4c(c3)CN(C3CCC(=O)NC3=O)C4=O)CC2)cc1NC(=O)Nc1cnc2ccnn2c1C(C)C` (centres unmarked) [Compound 164, 1-[1-[5-[4-[2-(2,6-dioxo-3-piperidyl)-1-oxo-isoindolin-5-yl]piperazin-1-yl]-5-oxo-pentyl]-3-methyl-pyrazol-4-yl]-3-(7-isopropylpyrazolo[1,5-a]pyrimidin-6-yl)urea], the concentration giving a half-maximal response (EC50) at MALT1 is > 5 µM.

As for `O=C1CCC(N2Cc3cc(N4CCN(C(=O)CCCc5nc(-c6ncc(NC(=O)Nc7cnc8ccnn8c7C7CC7)cc6Cl)no5)CC4)ccc3C2=O)C(=O)N1` (centres unmarked) [Compound 165, 1-[5-chloro-6-[5-[4-[4-[2-(2,6-dioxo-3-piperidyl)-1-oxo-isoindolin-5-yl]piperazin-1-yl]-4-oxo-butyl]-1,2,4-oxadiazol-3-yl]-3-pyridyl]-3-(7-cyclopropylpyrazolo[1,5-a]pyrimidin-6-yl)urea], on MALT1, the EC50 is ≤ 0.2 µM.

Take `O=C1CCC(N2Cc3cc(N4CCN(CCCCc5nc(-c6ncc(NC(=O)Nc7cnc8ccnn8c7C7CC7)cc6Cl)no5)CC4)ccc3C2=O)C(=O)N1` (centres unmarked) [Compound 166, 1-[5-chloro-6-[5-[4-[4-[2-(2,6-dioxo-3-piperidyl)-1-oxo-isoindolin-5-yl]piperazin-1-yl]butyl]-1,2,4-oxadiazol-3-yl]-3-pyridyl]-3-(7-cyclopropylpyrazolo[1,5-a]pyrimidin-6-yl)urea]: on MALT1, the EC50 is ≤ 0.2 µM.

With `Cc1cc(NC(=O)Nc2cnc3ccnn3c2C2CC2)cnc1-c1noc(CCCCC(=O)N2CCN(c3ccc4c(c3)CN(C3CCC(=O)NC3=O)C4=O)CC2)n1` (centres unmarked) [Compound 169, 1-(7-cyclopropylpyrazolo[1,5-a]pyrimidin-6-yl)-3-[6-[5-[5-[4-[2-(2,6-dioxo-3-piperidyl)-1-oxo-isoindolin-5-yl]piperazin-1-yl]-5-oxo-pentyl]-1,2,4-oxadiazol-3-yl]-5-methyl-3-pyridyl]urea], the EC50 at MALT1 is ≤ 0.2 µM.

By EC50 is commonly meant the concentration giving half of the maximal effect.
